# In patent US8367702B2, “Quinolone derivative” (Astellas Pharma Inc., priority 2007, dated 2013):
# Key:
# NADPH oxidase = test: Inhibitory activity on ROS production derived from NADPH oxidase (HUVECs, nitrotetrazolium blue); format: cell-based, Human; settings: 1.0 μM test compound, 25 mM glucose, 200 μM NADPH, 2 hours
# Experimental: Test 1: Inhibitory Activity on ROS Production Derived from NADPH Oxidase
# This activity was measured by using Human Umbilical Vein Endothelial Cells (HUVECs). The test method is as follows.
# 3×10^4 cells/well (100 μL) of HUVECs were seeded into a 96-well plate coated with collagen. The culture medium was MCDB131 medium containing 10% fetal bovine serum, 2 mM glutamine, 100 U/mL penicillin, 100 U/mL streptomycin, and 10 ng/mL recombinant human basic-FGF. On the next day, the culture medium was removed by an aspirator, and 100 μL/well of phosphate buffered saline containing 25 mM glucose, 200 μM NADPH, 0.2% nitrotetrazolium blue, and test compounds followed by culturing at 37° C. Nitrotetrazolium blue reacts with intracellularly produced ROS and turns into a water-insoluble blue pigment. After 2 hours, the supernatant was discarded, and the wells were washed three times with phosphate buffered physiological saline. Then, 100 μL/well of 90% DMSO water containing 0.04M sodium hydroxide was added to each well to completely dissolve the pigment, and an absorbance at a wavelength of 715 nm was measured. By taking an absorbance with no addition of a test compound as A, an absorbance […], and an absorbance with addition of glucose, NADPH and a test compound as C, ROS production inhibitory rate was calculated according to the following equation. Inhibition rate (%)=[…]
# Abbreviation “Ex” in the table represents Example Compound No. which will follow, and abbreviation “Inh” represents an ROS production inhibition rate. It was confirmed that the compounds of the formula (I) of the present invention have an excellent ROS production inhibitory activity.
# [1] = Oral glucose tolerance test using mice; format: in vivo; settings: Mus musculus, 0.5 h, 3 mg/kg orally 5 minutes prior to oral glucose loading (2 g/kg), 30 minutes after glucose loading, relative to control group, male ICR or C57BL/6 J mice, read-out: blood glucose-lowering rate
# Description: Test 2: Oral Glucose Tolerance Test Using Mice
# This test is intended to evaluate an inhibitory action of a test compound on elevation of the blood glucose level after glucose loading, using mice. A test method is described hereinafter.
# Male ICR or C57BL/6 J mice (6 weeks old, available from CLEA JAPAN, Inc.) pre-bred for one week were fasted overnight and used as test animals. A test compound was suspended in 10% PEG-60 Hydrogenated Castor Oil (HCO-60) aqueous solution, and was orally administered (3 mg/kg) to animals 5 minutes prior to oral glucose loading (2 g/kg). The control group was given a 10% HCO-60 aqueous solution. According to the following equation, a blood glucose-lowering rate (%) at 30 minutes after glucose loading was calculated for the test compound-treated group relative to the control group. An increase in the blood glucose level of the test compound-treated group and an increase in the blood glucose level of the control group were taken as A and B, respectively. Blood glucose-lowering rate (%)=100−[(A/B)×100]
Compound,melting point,Inh(%) ROS production inhibition rate (NADPH oxidase) [%],inhibition in vivo at 3 mg/kg [1] [%]
Cc1c(CCCCCOc2ccc(F)cc2F)[nH]c2ccc(F)cc2c1=O [Ex 28],201 to 203 °C,–,–
Cc1c(COCCCCOc2ccc(C#N)cc2)[nH]c2ccccc2c1=O [Ex 49],–,90.8 ± 5.2,–
COCCc1ccc(OCCCCOCc2[nH]c3ccccc3c(=O)c2C)cc1 [Ex 50],–,80.5 ± 2.5,–
Cc1c(COCCCCOc2cccc3c2OC(C)(C)C3)[nH]c2ccccc2c1=O [Ex 52],139 to 140 °C,–,–
Cc1c(COCCCCOCCC2CC2)[nH]c2ccccc2c1=O [Ex 53],155 to 157 °C,–,–
COC(C)(C)CCOCCCCOCc1[nH]c2ccccc2c(=O)c1C [Ex 55],–,57.3 ± 2.3,–
CC(=O)N1CCC(COc2cccc(OCc3[nH]c4ccccc4c(=O)c3C)c2)CC1 [Ex 98],–,101.5 ± 1.9,–
Cc1c(COc2cccc(OCCc3ccncc3)c2)[nH]c2ccccc2c1=O [Ex 127],–,85.3 ± 2.9,–
CCCCCC(=O)N1CCC(OCc2[nH]c3ccc(F)cc3c(=O)c2C)CC1 [Ex 128],–,77.7 ± 3.9,–
Cc1c(COc2cccc(OCCC(C)(C)O)c2)[nH]c2ccccc2c1=O [Ex 141],–,–,70 to 105
Cc1c(COc2cccc(OCC3CCOCC3)n2)[nH]c2ccccc2c1=O [Ex 143],221 to 223 °C,–,–
Cc1c(COc2cc(OCC3CCOCC3)ccn2)[nH]c2ccc(F)cc2c1=O [Ex 153],–,–,70 to 105
Cc1c(COc2ccc3c(c2)N(C(=O)CC2CCOCC2)CCC3)[nH]c2ccc(F)cc2c1=O [Ex 166],–,84.3 ± 2.4,–
Cc1c(COc2cc(OCCC3(O)CCOCC3)ccn2)[nH]c2ccccc2c1=O [Ex 179],189 to 190 °C,–,–
Cc1c(CN2CCc3cc(OCC4CCOCC4)ccc3C2)[nH]c2ccccc2c1=O [Ex 180],–,69.5 ± 1.3,–
CCCCCC(=O)N1CCN(Cc2[nH]c3ccccc3c(=O)c2C)CC1 [Ex 181],171 to 173 °C,–,–
Cc1c(CCc2cc(OCC3CCOCC3)ccn2)[nH]c2ccccc2c1=O [Ex 184],212 to 215 °C,–,–
COC(C)(C)CCOc1ccnc(OCc2[nH]c3ccccc3c(=O)c2C)c1 [Ex 186],–,–,70 to 105
Cc1c(COc2cccc(N3CCC(OCCC(C)(C)O)CC3)c2)[nH]c2ccccc2c1=O [Ex 194],160 to 163 °C,–,–
Cc1c(COc2cccc(N3CCC(O)CC3)c2)[nH]c2ccccc2c1=O [Ex 198],–,97.5 ± 6.1,–
Cc1c(COc2cccc(N3CCC(C)(O)CC3)c2)[nH]c2ccccc2c1=O [Ex 199],–,93.1 ± 1.1,–
Cc1c(COCC(C)(C)COC(=O)N2CCOCC2)[nH]c2ccccc2c1=O [Ex 204],155 to 157 °C,–,–
Cc1c(COCCC2(O)CCCCC2)[nH]c2ccccc2c1=O [Ex 205],125 to 127 °C,–,–
Cc1c(CCC2CCN(C(=O)C3CC3)CC2)[nH]c2ccccc2c1=O [Ex 209],222 to 224 °C,–,–

Compound,melting point,Inh(%) ROS production inhibition rate (NADPH oxidase) [%],inhibition in vivo at 3 mg/kg [1] [%]
Cc1c(COC2CCOCC2)[nH]c2ccccc2c1=O [Ex 212],194 to 196 °C,–,–
Cc1c(COc2ccc3c(c2)CCN(C(=O)CC(C)(C)O)C3)[nH]c2ccccc2c1=O [Ex 213],135 to 138 °C,–,–
CCNC(=O)N[C@H]1CC[C@H](OCc2[nH]c3ccccc3c(=O)c2C)CC1 [Ex 224],> 270 °C (dec.),–,–
Cc1c(COCCN(C(=O)C2CCOCC2)C2CCCCC2)[nH]c2ccccc2c1=O [Ex 228],–,66.3 ± 2.1,–
Cc1c(COc2ncc(C(=O)NC3CCCC3)cn2)[nH]c2ccccc2c1=O [Ex 230],> 231 °C (dec.),–,–
Cc1c(CO[C@H]2CC[C@H](NC(=O)CC(C)(C)O)CC2)[nH]c2ccccc2c1=O [Ex 248],–,–,89
Cc1c(CCC2CCN(C(=O)CC(C)(C)O)CC2)[nH]c2ccccc2c1=O [Ex 271],203 to 205 °C,–,–
CCOC(=O)N1CCC(CCc2[nH]c3ccccc3c(=O)c2C)CC1 [Ex 276],211 to 213 °C,118.2 ± 4.0,–
CCS(=O)(=O)N1CCC(CCc2[nH]c3ccccc3c(=O)c2C)CC1 [Ex 279],225 to 228 °C,98.9 ± 1.0,–
Cc1cccc(CNC(=O)OCc2[nH]c3ccccc3c(=O)c2C)c1 [Ex 283],240 to 243 °C,61.6 ± 1.7,–
Cc1c(COC(=O)NCCCc2ccccc2)[nH]c2ccccc2c1=O [Ex 284],–,64.2 ± 0.1,70 to 105
Cc1c(COC(=O)Nc2cccc(Cc3ccccc3)c2)[nH]c2ccccc2c1=O [Ex 285],–,67.3 ± 0.1,–
Cc1c(COC(=O)NCC2CCCCC2)[nH]c2ccccc2c1=O [Ex 291],–,118.8 ± 0.4,–
"Cc1c(COc2cccc(OCC3CCOCC3)c2)[nH]c2ccccc2c1=O [Example 2, 3-methyl-2-{[3-(tetrahydro-2H-pyran-4-ylmethoxy)phenoxy]methyl}quinolin-4(1H)-one]",200 to 202 °C,91.9 ± 5.2,–
"Cc1c(COc2ccc(CCC3(O)CCCC3)cc2)[nH]c2ccccc2c1=O [Example 3, 2-({4-[2-(1-hydroxycyclopentyl)ethyl]phenoxy}methyl)-3-methylquinolin-4(1H)-one]",200 to 202 °C,–,–
"Cc1c(COc2cc(OCCC(C)(C)O)ccn2)[nH]c2ccccc2c1=O [Example 4, 2-({[4-(3-hydroxy-3-methylbutoxy)pyridin-2-yl]oxy}methyl)-3-methylquinolin-4(1H)-one]",127 to 130 °C,84.7 ± 2.1,70 to 105
"CCOC(=O)N[C@H]1CC[C@H](OCc2[nH]c3ccccc3c(=O)c2C)CC1 [Example 5, ethyl {trans-4-[(3-methyl-4-oxo-1,4-dihydroquinolin-2-yl]methoxy]cyclohexyl}carbamate]",268 to 271 °C,–,–
"CCS(=O)(=O)N[C@H]1CC[C@H](OCc2[nH]c3ccccc3c(=O)c2C)CC1 [Example 6, N-{trans-4-[(3-methyl-4-oxo-1,4-dihydroquinolin-2-yl)methoxy]cyclohexyl}ethanesulfonamide]",245 to 247 °C,79.9 ± 1.2,–
"Cc1c(CO[C@H]2CC[C@H](N3CCCC3=O)CC2)[nH]c2ccccc2c1=O [Example 7, 3-methyl-2-({[trans-4-(2-oxopyrrolidin-1-yl)cyclohexyl]oxy}methyl)quinolin-4(1H)-one]",216 to 217 °C,–,–
"Cc1c(COc2cc(OCCC3CCOCC3)ccn2)[nH]c2ccccc2c1=O [Example 8, 3-methyl-2-[({4-[2-(tetrahydro-2H-pyran-4-yl)ethoxy]pyridin-2-yl}oxy)methyl]quinolin-4(1H)-one]",137 to 138 °C,91.5 ± 4.7,70 to 105
"Cc1c(COc2cccc(N3CCOCC3=O)c2)[nH]c2ccccc2c1=O [Example 9, 3-methyl-2-{[3-(3-oxomorpholin-4-yl)phenoxy]methyl}quinolin-4(1H)-one]",221 to 223 °C,88.7 ± 1.5,–
"Cc1c(COc2cc(OCCC(C)(C)O)cc(N3CCOCC3)c2)[nH]c2ccccc2c1=O [Example 10, 2-{[3-(3-hydroxy-3-methylbutoxy)-5-morpholin-4-ylphenoxy]methyl}-3-methylquinolin-4(1H)-one]",189 to 190 °C,–,–
"CCCCCCCS(=O)(=O)Cc1[nH]c2ccccc2c(=O)c1C [Example 19, 2-[(heptylsulfonyl)methyl]-3-methylquinolin-4(1H)-one]",> 310 °C (dec.),99.1 ± 0.0,–
